In ChEMBL document CHEMBL4017496 (J Med Chem, 2017) one finds Activity, inhibition and Ki data, which are given here for 19 molecules.

The source made the active and inactive calls. No cut-off for these calls is given here.

Assay [1] concerns Mus musculus. Description: Antidiabetic activity in STZ-induced diabetic C57BL/6J mouse assessed as insulin sensitivity by measuring reduction of serum glucose levels administered po for 5 days measured at 1 and 4 hrs post last dose. The class given is functional, organism-based.
Assay [2] concerns Mus musculus. In words: Antidiabetic activity in STZ-induced diabetic C57BL/6J mouse assessed as insulin sensitivity by measuring reduction of serum glucose levels at 20 mg/kg,po for 5 days measured at 1 and 4 hrs post last dose. The class given is functional, organism-based.
Assay [3] addresses T1, Peroxisome proliferator-activated receptor gamma (Homo sapiens) (UniProt P37231).
T1 sequence (whole entry): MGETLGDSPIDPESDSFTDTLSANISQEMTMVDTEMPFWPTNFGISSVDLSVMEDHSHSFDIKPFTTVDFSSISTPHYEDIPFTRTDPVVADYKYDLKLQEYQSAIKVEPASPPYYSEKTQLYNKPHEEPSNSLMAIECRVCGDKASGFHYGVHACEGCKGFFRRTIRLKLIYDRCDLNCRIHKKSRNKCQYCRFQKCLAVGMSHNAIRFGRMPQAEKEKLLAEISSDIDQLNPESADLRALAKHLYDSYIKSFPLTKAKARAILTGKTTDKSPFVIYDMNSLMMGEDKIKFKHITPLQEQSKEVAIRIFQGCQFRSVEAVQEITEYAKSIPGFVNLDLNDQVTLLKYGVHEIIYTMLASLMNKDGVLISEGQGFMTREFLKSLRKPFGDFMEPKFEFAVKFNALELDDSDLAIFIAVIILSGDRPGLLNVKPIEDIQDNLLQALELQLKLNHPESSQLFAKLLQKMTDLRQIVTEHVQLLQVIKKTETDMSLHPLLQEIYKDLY
Description: (§1) Displacement of Fluormone-Pan-PPAR Green from human GST-tagged PPARgamma LBD by TR-FRET assay. In general terms: TR-FRET usually uses a lanthanide donor and a delayed reading to cut background.

In assay [4] the target is T2, Peroxisome proliferator-activated receptor delta (Homo sapiens, UniProt Q03181).
T2 sequence (Q03181 whole entry): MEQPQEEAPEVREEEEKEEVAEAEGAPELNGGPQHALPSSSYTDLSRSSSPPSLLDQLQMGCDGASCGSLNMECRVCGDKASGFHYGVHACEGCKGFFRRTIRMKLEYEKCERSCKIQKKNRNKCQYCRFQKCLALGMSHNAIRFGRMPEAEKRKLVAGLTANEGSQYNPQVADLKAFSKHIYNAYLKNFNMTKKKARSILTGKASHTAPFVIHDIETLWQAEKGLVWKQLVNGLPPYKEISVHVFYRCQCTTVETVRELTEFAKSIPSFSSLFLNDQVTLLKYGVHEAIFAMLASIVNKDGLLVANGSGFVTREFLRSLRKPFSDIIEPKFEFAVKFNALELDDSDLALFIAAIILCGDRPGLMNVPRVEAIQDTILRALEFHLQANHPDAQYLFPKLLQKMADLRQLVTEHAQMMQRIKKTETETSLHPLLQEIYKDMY
Description: Displacement of Fluormone-Pan-PPAR Green from human GST-tagged PPARdelta LBD by TR-FRET assay.

The target in assay [5] is T1, Peroxisome proliferator-activated receptor gamma (Homo sapiens). Description: Transactivation of human PPARgamma expressed in African green monkey CV1 cells at 10 uM by luciferase reporter gene assay relative to control. It is filed as cell-based. A general note: A reporter such as luciferase makes a cellular process visible.
Assay [6] deals with T3, Peroxisome proliferator-activated receptor delta (Homo sapiens) (UniProt Q03181).
T3 sequence (whole entry): T2 sequence (Q03181 whole entry)
Description: Transactivation of human GST-tagged PPARdelta LBD assessed as fluorescein-C33 coactivator recruitment at 10 uM by TR-FRET assay.

A short description of assay [7]: Induction of adipogenesis in human bone marrow-derived mesenchymal stem cells assessed as adiponectin level at 20 uM measured on day 7 after 48 hrs by ELISA. The class given is functional, Mesenchymal stem cell. In general terms: In an ELISA, binding on a coated surface is turned into a signal by an enzyme label.
A short description of assay [8]: Induction of adipogenesis in human bone marrow-derived mesenchymal stem cells assessed as adiponectin level at 4 uM measured on day 7 after 48 hrs by ELISA. It is filed as functional, Mesenchymal stem cell.
Assay [9] addresses T3, Peroxisome proliferator-activated receptor delta (Homo sapiens). In words: Transrepression of human GST-tagged PPARdelta LBD assessed as induction of corepressor SMRT-ID2 peptide recruitment by TR-FRET assay.
Assay [10] has as its target Peroxisome proliferator-activated receptor delta (Homo sapiens) (UniProt Q03181). Description: Antagonist activity at human GST-tagged PPARdelta LBD assessed as reduction in GW501516-induced fluorescein-C33 coactivator recruitment at 1 uM by TR-FRET assay relative to control.
Assay [11] relates to Mesenchymal stem cell. In words: Induction of adipogenesis in human bone marrow-derived mesenchymal stem cells assessed as adiponectin level at 20 to 30 uM measured on day 7 after 48 hrs by ELISA. The class given is functional, cell-based.
Assay [12] concerns the target T3, Peroxisome proliferator-activated receptor delta (Homo sapiens). Description: Displacement of Fluormone-Pan-PPAR Green from human GST-tagged PPARdelta LBD at 10 uM by TR-FRET assay relative to control.
In the next assay the target is T4, Adenosine receptor A3 (Homo sapiens, UniProt P0DMS8).
T4 sequence (P0DMS8 whole entry): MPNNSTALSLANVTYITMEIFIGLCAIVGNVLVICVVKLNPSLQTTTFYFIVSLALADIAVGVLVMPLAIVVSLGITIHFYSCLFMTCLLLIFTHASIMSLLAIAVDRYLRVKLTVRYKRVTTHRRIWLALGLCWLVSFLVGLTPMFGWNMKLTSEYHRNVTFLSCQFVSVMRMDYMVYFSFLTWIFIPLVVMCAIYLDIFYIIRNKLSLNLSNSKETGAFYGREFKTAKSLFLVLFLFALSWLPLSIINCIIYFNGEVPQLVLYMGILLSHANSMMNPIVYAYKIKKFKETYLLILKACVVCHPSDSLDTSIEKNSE
In words: Displacement of [125I]I-AB-MECA from human A3 adenosine receptor expressed in CHO cell membranes after 60 mins by gamma counting method.

Assay [13] addresses T5, Peroxisome proliferator-activated receptor alpha (Homo sapiens) (UniProt Q07869).
T5 sequence (whole entry): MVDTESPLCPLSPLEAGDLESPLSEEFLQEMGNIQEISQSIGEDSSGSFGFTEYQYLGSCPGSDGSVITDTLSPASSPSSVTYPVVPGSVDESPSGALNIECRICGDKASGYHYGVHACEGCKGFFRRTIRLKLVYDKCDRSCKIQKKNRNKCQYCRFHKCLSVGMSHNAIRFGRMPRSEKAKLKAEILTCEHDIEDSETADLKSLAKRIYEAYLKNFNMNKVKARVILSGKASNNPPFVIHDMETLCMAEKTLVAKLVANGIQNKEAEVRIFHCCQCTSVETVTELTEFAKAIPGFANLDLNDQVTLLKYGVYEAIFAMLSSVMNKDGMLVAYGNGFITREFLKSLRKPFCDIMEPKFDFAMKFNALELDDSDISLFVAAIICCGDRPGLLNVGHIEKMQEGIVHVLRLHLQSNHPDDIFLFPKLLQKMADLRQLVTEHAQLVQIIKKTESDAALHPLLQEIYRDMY
In words: Displacement of Fluormone-Pan-PPAR Green from human GST-tagged PPARalpha LBD at 20 uM by TR-FRET assay relative to control.

The target in assay [14] is T1, Peroxisome proliferator-activated receptor gamma (Homo sapiens). Description: Displacement of Fluormone-Pan-PPAR Green from human GST-tagged PPARgamma LBD at 20 uM by TR-FRET assay relative to control.
The nature of assay [15]: Induction of adipogenesis in mouse 7F2 cells transfected with human AR assessed as increase in […] at 1 to 10 uM after 7 to 12 days by staining based oil red O phase contrast microscopic method relative to control. It is filed as functional.
Assay [16] has as its system Mesenchymal stem cell. In words: Induction of adipogenesis in human bone marrow-derived mesenchymal stem cells assessed as increase in adiponectin production at 20.4 uM after 7 days in presence of IDX. The class given is functional, cell-based.
Assay [17] has as its target T6, Peroxisome proliferator-activated receptor gamma (Homo sapiens, UniProt P37231).
T6 sequence (P37231 whole entry): T1 sequence (whole entry)
The assay is described as §1.

`O[C@@H]1[C@H](O)CS[C@H]1n1cnc2c(NCc3cccc(I)c3)nc(Cl)nc21`: the Activity result in the assay on Mus musculus [1] is “Dose-dependent effect”; in assay [5], 54.3%; in assay [7], 857 pg/mL; in [8], 192 pg/mL; in assay [9] it was “Dose-dependent effect”. In addition, the outcome with Mus musculus [2] was Active. In addition, the inhibition (commonly the change of the read-out against control, counted positive when it falls) was “Dose-dependent effect” in assay [3] and 57% in assay [10]. In assay [4], affinity was put at a Ki of 4.83 nM. Further, in assay [6], the outcome was inactive.
As to `C[C@@H]1C[C@H]2[C@@H]3CCC4=CC(=O)C=C[C@]4(C)[C@@]3(F)[C@@H](O)C[C@]2(C)[C@@]1(O)C(=O)CO` [DEXAMETHASONE], the Activity in assay [7] and in assay [8] was 100 pg/mL throughout.
`CCCn1cc2c(nc(NC(=O)Nc3ccc(OC)cc3)n3nc(-c4ccco4)nc23)n1`: the outcome in the assay on Mesenchymal stem cell [11] was inactive.
With `COc1ccc(Cl)cc1C(=O)NCCc1ccc(S(=O)(=O)NC(=O)NC2CCCCC2)cc1` [GLYBURIDE], the Activity in assay [7] was 1000 pg/mL; in [8], 838 pg/mL. The molecule also registered an inhibition in assay [12] of 21.5%.
Regarding `CNC(=O)[C@H]1S[C@@H](n2cnc3c(NCc4cccc(I)c4)ncnc32)[C@H](O)[C@@H]1O`, the inhibition constant Ki – broadly, a measure of affinity in units of concentration, obtained from inhibition or displacement – is 0.3 nM at Adenosine receptor A3 and 2540 nM in assay [4]. The outcome (in the assay on Mus musculus [2]; in [9]) was Active. Moreover, the results for the inhibition in assay [13], in assay [14] and in assay [10] were 13.5%, 46.9% and 22%, respectively. In addition, the Activity in assay [5] is 46.9%; in assay [7], 343 pg/mL; in assay [8], 126 pg/mL. For the same molecule, the result in assay [6] was inactive.
On to `O=C(NC1CC1)[C@H]1S[C@@H](n2cnc3c(NCc4cccc(I)c4)ncnc32)[C@H](O)[C@@H]1O`, for which the inhibition in assay [13] worked out at 37.6%; in assay [14], 49.1%. The molecule further displayed a Ki in assay [4] of 2980 nM. Besides, the results for the Activity in [7] and in assay [8] were 249 pg/mL and 174 pg/mL, respectively.
Turning to `CNC(=O)[C@@]12C[C@@H]1[C@@H](n1cnc3c(NCc4cccc(Cl)c4)nc(C#Cc4ccc(F)c(F)c4)nc31)[C@H](O)[C@@H]2O`, in the assay with Mesenchymal stem cell [11], the result was inactive.
Consider `OC[C@H]1O[C@@H](n2cnc3c(NC4CCCC4)nc(Cl)nc32)[C@H](O)[C@@H]1O`, for which the Activity in assay [15] is 20 - 30%. The outcome with Mesenchymal stem cell [16] was inactive.
As to `O=C(NC1CCC1)[C@H]1S[C@@H](n2cnc3c(NCc4cccc(I)c4)ncnc32)[C@H](O)[C@@H]1O`, the inhibition in assay [13] amounted to 11.7%. Also, the Ki in assay [17] is 170 nM; in assay [4], 2610 nM. Besides, the values for the Activity in assay [7] and in assay [8] were 633 pg/mL and 323 pg/mL, respectively.
With `CNC(=O)[C@H]1S[C@@H](n2cnc3c(NCc4cccc(I)c4)nc(Cl)nc32)[C@H](O)[C@@H]1O`, the inhibition in assay [13] is 37.8%. The Ki was 4600 nM in assay [17] and 160 nM in assay [4]. For the same molecule, the figures for the Activity in assay [7] and in assay [8] were 738 pg/mL and 131 pg/mL, respectively.
As for `CC(C)Cn1c(=O)n(C)c(=O)c2nc[nH]c21` [ISOBUTYLMETHYLXANTHINE], the Activity in assay [7] and in assay [8] was 100 pg/mL throughout.
Take `CCNC(=O)[C@H]1O[C@@H](n2cnc3c(N)nc(NCCc4ccc(CCC(=O)O)cc4)nc32)[C@H](O)[C@@H]1O`: the outcome in the assay on Mesenchymal stem cell [16] was inactive.
Turning to `Cc1c(C)c2c(c(C)c1O)CCC(C)(COc1ccc(CC3SC(=O)NC3=O)cc1)O2` (centres undefined), the inhibition in assay [12] was determined as 23.4%.
`O[C@@H]1[C@H](O)CS[C@H]1n1cnc2c(NCc3cccc(I)c3)ncnc21`: the Ki at Adenosine receptor A3 is 1.5 nM.
On to `CCNC(=O)[C@H]1S[C@@H](n2cnc3c(NCc4cccc(I)c4)ncnc32)[C@H](O)[C@@H]1O`, for which the inhibition in assay [13] was 29.3%; in [14], 37.1%. In assay [4], this molecule registered an inhibitory constant (Ki) of 3150 nM. In addition, the Activity was determined as 242 pg/mL in assay [7] and 118 pg/mL in [8].
`O=C(NCC1CC1)[C@H]1S[C@@H](n2cnc3c(NCc4cccc(I)c4)ncnc32)[C@H](O)[C@@H]1O` showed an inhibition in [13] of 16.4%. The values for the Activity in [7] and in assay [8] were 490 pg/mL and 242 pg/mL, respectively.
`O[C@@H]1[C@H](O)CS[C@H]1n1cnc2c(NCc3cccc(Cl)c3)nc(Cl)nc21`: the figures for the inhibition in assay [13] and in [14] were 4.5% and 40.8%, respectively. Further, the Activity in [7] is 442 pg/mL; in assay [8], 196 pg/mL.
In the case of `CCNC(=O)[C@H]1O[C@@H](n2cnc3c(N)ncnc32)[C@H](O)[C@@H]1O` [NECA], the Activity in assay [15] is listed as 20 - 30%. Further, in the assay on Mesenchymal stem cell [16], the result was inactive.
For `O[C@@H]1[C@H](O)CS[C@H]1n1cnc2c(NCc3ccccc3Cl)nc(Cl)nc21`, the inhibition in assay [13] and in assay [14] was 19.2% in each case. Moreover, the Ki in assay [4] came out at 620 nM. Also, the Activity in assay [7] stood at 268 pg/mL; in assay [8], 107 pg/mL.
